Data published in US9874558B2, “Immunoassay method less affected by impurities” (Konica Minolta, Inc., priority 2012, dated 2018).

Tests used:
[1] = target: T1, Lens culinaris lectin (LCA) (Lens culinaris, UniProt P02870); assay: Dissociation constant (Kd) with labeled LCA lectin; assay type: binding; conditions: between sugar chain compound to be added and labeled lectin LCA; target compound AFP; read-out: Dissociation constant (Kd) x
T1 sequence (P02870 31-211 limits assumed): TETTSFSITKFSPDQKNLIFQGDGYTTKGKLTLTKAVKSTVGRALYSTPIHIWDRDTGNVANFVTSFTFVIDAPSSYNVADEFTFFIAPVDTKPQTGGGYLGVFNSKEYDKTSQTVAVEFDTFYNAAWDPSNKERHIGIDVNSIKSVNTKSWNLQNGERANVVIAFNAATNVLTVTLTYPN
T1 sequence (P02870 218-269 limits assumed): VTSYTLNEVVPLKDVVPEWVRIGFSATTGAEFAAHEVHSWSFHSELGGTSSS
Excerpt: In the present invention, the dissociation constant is defined as follows.
The binding between a sugar chain compound (A) and a lectin (B) occurs through a reversible reaction, and the following formula is established in an equilibrium state (wherein, [A] represents the concentration of the sugar chain compound (mol/L); [B] represents the concentration of the lectin (mol/L); and [A−B] represents the concentration of conjugates formed between the sugar chain compound and the lectin (mol/L)). [A−B]⇄[A]+[B]
In this case, the dissociation constant, Kd, between the sugar chain compound (A) and the lectin (B) is represented by the following equation: Kd=[A]×[B]/[A−B]

[2] = target: T1, Lens culinaris lectin (LCA); assay: SPFS sandwich immunoassay of AFP with labeled LCA, added competing sugar chain compound, S/N ratio; conditions: AFP 3.0 ng/mL in commercially available serum, sugar chain compound 0.1% by weight in PBS for 10 minutes, none: S/N 2
[3] = target: T2, Wisteria floribunda lectin (WFA) (Wisteria floribunda, UniProt A0A218PFP3); assay: SPFS sandwich immunoassay of PSA with labeled WFA, added competing sugar chain compound, S/N ratio; conditions: PSA in commercially available serum, sugar chain compound 0.1% by weight in PBS for 10 minutes, none: S/N 2
T2 sequence (A0A218PFP3 31-273): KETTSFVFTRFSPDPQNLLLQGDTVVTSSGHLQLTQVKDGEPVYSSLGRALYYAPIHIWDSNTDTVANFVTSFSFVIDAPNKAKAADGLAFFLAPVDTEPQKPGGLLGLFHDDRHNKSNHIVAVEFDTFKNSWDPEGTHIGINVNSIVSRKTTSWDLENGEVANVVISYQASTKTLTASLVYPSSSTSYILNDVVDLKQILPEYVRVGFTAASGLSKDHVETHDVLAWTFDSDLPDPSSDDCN
Procedure: Antigen Addition Step: To one of the thus prepared sensor chip, 0.5 mL of a solution having a PSA concentration of 1.0 ng/mL, which was prepared by diluting the LNCaP culture supernatant with a commercially available serum (manufactured by Kohjin Bio Co., Ltd.), was added and circulated for 25 minutes in place of PBS. To the other sensor chip, a commercially available serum (manufactured by Kohjin Bio Co., Ltd.) containing no LNCaP culture supernatant was added and circulated for 25 minutes.
Washing Step: Each sensor chip was washed by circulating TBS containing 0.05% by weight of Tween 20 as a transfer liquid. Here, using a laser light source, the metal thin films of the sensor chip were irradiated with laser light having a wavelength of 635 nm, whose photon amount was adjusted by an optical filter (manufactured by Sigmakoki Co., Ltd.), through a prism (“S-LAL 10” manufactured by Ohara Inc. (refractive index [n]=1.72)), and the blank fluorescence was detected using a CCD image sensor (manufactured by Texas Instruments Inc.) equipped with a cut filter for cutting light having wavelengths of non-fluorescent components and an objective lens (×20). […]
Further, also for each of the following cases, the same experiment as described above was carried out and the S/N ratio was determined: […]

Row | SMILES | Kd [1] | S/N [2] | S/N [3]
1 | CC(C)CCCC(C)C1CCC2C3CC=C4CC(OC(=O)NCCOC5OC(CO)[C@H](O)C(O)[C@@H]5O)CC[C@]4(C)C3CC[C@]12C (stereo partly drawn) [Man-2-Chol] | 220 µM | 3 | –
2 | CC(C)CCCC(C)C1CCC2C3CC=C4CC(OC(=O)NCCOC5OC(C)[C@@H](O)C(O)[C@H]5O)CC[C@]4(C)C3CC[C@]12C (stereo partly drawn) [Fuc-2-Chol] | – | – | 3
